Measured values as given in patent US20040072824A1, “Methods and compositions for the treatment of cancer” (priority 2001, published 2004).
Counter-ions that a name gives are not always drawn. Like-named read-outs stand apart in the source and are kept apart here.

What was measured:
[1] = tested on: K562, U937, Jurkat, T47-D, MCF7, BT20 and 184B5 cell lines; assay: Cytotoxicity in malignant and immortalized cell lines (manual counting, Alamar assay); type: cell-based; conditions: all of the cell lines tested
Protocol: These four compounds were added at different concentrations to cultures of various malignant cell lines and normal cells. The cell lines used for these tests were the following:
All leukemic cell lines were grown and used in logarithmic phase. After one day of treatment, the cells were isolated, counted and diluted in a regular growth medium to provide the cell density of about 75×10^3 cells/ml for reading on plates at 48 hours after the treatment, and […] for reading at 144 hours after the treatment.
Several dilutions of each compound tested were added to the wells (12 wells per plate, TPP), and 1 ml of cells from the parent solution was added per well after a line had been completed. The dilutions were made using the culture medium, and following dilutions were tested: control, which contained no compound of this invention; 1:100; 1:1,000; 1:2,000; 1:5,000; and 1:10,000. The starting concentrations for these dilutions were: 50 mg/ml for compound A; 10 mg/ml for compound B; 25 mg/ml for compound C; and 5 mg/ml for compound D. The results were analyzed by manual counting and Alamar reduced assay.
The cells were grown on their respective propagation medium and seeded 24 hours before the compounds are added. The cells were trypsinized, and 50,000 cells/well and 10,000 cells/well were seeded in order to read the plates at 48 hours and 144 hours after being treated by the compounds, respectively.
On the day of the treatment, the medium was replaced by 10 ml each of series dilution of the compounds, consisting of: control, which contained no compound of this invention; 1:100 dilution; 1:1,000 dilution; 1:2,000 dilution; and 1:5,000 dilution. The starting concentrations for these dilutions were: 50 mg/ml for compound A; 10 mg/ml for compound B; 25 mg/ml for compound C; and 5 mg/ml for compound D. The dilution was made using the growth medium.
A tested compound is regarded as being active in cytotoxicity where the percentage of surviving cells after the treatment with the compound is less than 30%.

TCTP = TCTP expression in treated U937 cells (western blot); type: cell-based; conditions: 24 hours, various dilutions
Protocol: U937 cells were treated with various dilutions of hydroxyzine, brompheniramine and promethazine for 24 hours as denoted in FIG. 23A. Starting concentrations were: 50 mg/ml for […] (“A”); 10 mg/ml for brompheniramine (“B”); and 25 mg/ml for promethazine (“C”). The proteins were isolated from these cells and loaded onto a gel for western blot analysis. A specific anti-TCTP (anti-HRF) antibody was used to visualize the location of TCTP. […] The level of actin in equal loading of extract was visualized by antiactin antibody (Santa Cruz Biotechnology). No substantial difference between the level of actin in treated and untreated cells was observed.

U937 = type: in vivo; conditions: treatment from day 1, cells inoculated after more than 24 hours, daily administration
Protocol: The second protocol was designed to test the preventive effects of the compounds of this invention on tumorigenesis. In this protocol, the animals have been treated with various compounds of the present invention on day 1. After more than 24 hours, tumoral cells were inoculated. The administration of the compounds of this invention was maintained daily. The cell line used for this test was U937.

[2] = tested on: blastic cells from AML patients; assay: Inhibition of viability of fresh leukemic cells (trypan blue exclusion); type: cell-based, human; conditions: Homo sapiens, day 3; for cytotoxicity at 10 µM: 10^-5 M; for cytotoxicity at 1 µM: 10^-6 M
Protocol: Samples for AML 1 through 5, AML 1 being the least and AML 5 being the most differentiated, were obtained. […] Cells were incubated with or without […] anti-histamine derivatives. Polaramine was included as a negative control. Cell counts were assessed by trypan blue exclusion test at day 3 after the incubation. Morphological analysis was performed using Wright-Giemsa staining on cytocentrifuge preparations. The results were expressed as % inhibition of growth as compared to negative control.

U937 cells = assay: Curative effects on palpable tumors, U937 cells in scid/scid mice; type: in vivo; conditions: daily administration once tumors palpable (4 mm^3)
Protocol: In this series of experiments, effects of various compounds of the present invention on tumor development were tested using two protocols. The first protocol is directed to the testing of curative effects of these compounds in different cell lines. In this protocol, cancerous cells are inoculated to the animals, and the inoculated animals were left without any further treatment until the development of tumors. As soon as the tumors became palable (4 mm^3), the compounds of this invention were administered daily to the animals. Two different cell lines, i.e., U937 and MDA-MB-231 (breast cancer line), were used for this protocol to inoculate scid/scid mice.

[3] = tested on: K562, U937, MDA-DB231, BT20 and MCF7 cell lines; assay: Cytotoxic effects in multi-well plate, 6 days, ATP level (CellTiter-Glo); conditions: 2x10^-9 M to 2x10^-4 M
Protocol: In order to test the cytotoxic effects of various compounds, a test was developed in a multi-well plate. Two leukemic cell lines, namely K562 and U937, and three breast cancer cell lines, namely MDA-DB231, BT20 and MCF7 were used for this test.
The cells were seeded at low density and were left for 24 hours to recover and reach a new logarithmic phase of growth. Various concentrations of the compounds being tested, ranging from 2×10^−9 M to 2×10^−4 M, were added in triplicate. The mixture was incubated for 6 days, during which approximately 4 doublings of the cell population occurred, to allow the cells to reach subconfluence.
The viability of the cultured cells after the treatment by the compounds was determined by quantifying the level of ATP since the level of ATP is directly proportional to the number of viable cells present in the culture. The ATP level was quantified by using CellTiter-Glo™ (Promega) luminescent test for cell viability.

[4] = tested on: Poly ADP-Ribose Polymerase (PARP); assay: PARP cleavage in treated U937 cells (western blot); type: cell-based; conditions: 24 hours
Protocol: U937 cells were treated with various concentrations of hydroxyzine and promethazine for 24 hours. The proteins were isolated from these cells and loaded onto a gel for a western blot analysis. A specific anti-PARP antibody was used to visualize the location of PARP.

[5] = 72 h, MEAN over AML patients, read-out: In Vitro Percent Inhibition of Viability, MEAN
[6] = 72 h, patient ID 3, FAB AML2, read-out: In Vitro Percent Inhibition of Viability
[7] = 72 h, patient ID 4, FAB AML2, read-out: In Vitro Percent Inhibition of Viability
[8] = 72 h, patient ID 5, FAB AML2, read-out: In Vitro Percent Inhibition of Viability
[9] = 72 h, patient ID 10, FAB AML4, read-out: In Vitro Percent Inhibition of Viability
[10] = 72 h, patient ID 11, FAB AML5, read-out: In Vitro Percent Inhibition of Viability
[11] = 72 h, patient ID 12, FAB AML5, read-out: In Vitro Percent Inhibition of Viability
[12] = 72 h, patient ID 13, FAB AML5, read-out: In Vitro Percent Inhibition of Viability
[13] = 72 h, patient ID 14, FAB AML5, read-out: In Vitro Percent Inhibition of Viability
[14] = 72 h, patient ID 15, FAB AML5, read-out: In Vitro Percent Inhibition of Viability
[15] = AML1, 72 h, patient ID 1, FAB AML1, read-out: In Vitro Percent Inhibition of Viability
[16] = AML1, 72 h, patient ID 2, FAB AML1, read-out: In Vitro Percent Inhibition of Viability
[17] = AML3, 72 h, patient ID 6, FAB AML3, read-out: In Vitro Percent Inhibition of Viability
[18] = AML3, 72 h, patient ID 7, FAB AML3, read-out: In Vitro Percent Inhibition of Viability
[19] = AML3, 72 h, patient ID 8, FAB AML3, read-out: In Vitro Percent Inhibition of Viability
[20] = AML3, 72 h, patient ID 9, FAB AML3, read-out: In Vitro Percent Inhibition of Viability

| Compound | tumor growth compared to the negative control (U937) | cytotoxicity at 10 µM [2, 5] [%] | cytotoxicity at 1 µM [2, 5] [%] | cytotoxicity at 10 µM [2, 6] [%] | cytotoxicity at 1 µM [2, 6] [%] | cytotoxicity at 10 µM [2, 7] [%] | cytotoxicity at 1 µM [2, 7] [%] | cytotoxicity at 10 µM [2, 8] [%] | cytotoxicity at 1 µM [2, 8] [%] | cytotoxicity at 10 µM [2, 9] [%] | cytotoxicity at 1 µM [2, 9] [%] | cytotoxicity at 10 µM [2, 10] [%] | cytotoxicity at 1 µM [2, 10] [%] | cytotoxicity at 10 µM [2, 11] [%] | cytotoxicity at 10 µM [2, 12] [%] | cytotoxicity at 1 µM [2, 12] [%] | cytotoxicity at 10 µM [2, 13] [%] | cytotoxicity at 1 µM [2, 13] [%] | cytotoxicity at 10 µM [2, 14] [%] | cytotoxicity at 1 µM [2, 14] [%] | other results |
| --- | --- | --- | --- | --- | --- | --- | --- | --- | --- | --- | --- | --- | --- | --- | --- | --- | --- | --- | --- | --- | --- |
| CN(C)CCC(c1ccc(Br)cc1)c1ccccn1 (centres unmarked) [brompheniramine, brompheniramine maleate] | – | – | – | – | – | – | – | – | – | – | – | – | – | – | – | – | – | – | – | – | cytotoxic activity [1]: little or no cytotoxic activity; expression of TCTP (TCTP): little effect |
| CSc1ccc2c(c1)N(CCC1CCCCN1C)c1ccccc1S2 (centres unmarked) [S60, thioridazine] | decrease in tumor growth | 53 | 14 | 91 | 12 | 42 | 19 | 51 | 35 | 48 | 6 | 43 | 39 | 88 | 62 | 15 | 15 | 25 | 27 | 0 | cytotoxicity at 10 µM [2, 15]: 42%; cytotoxicity at 1 µM [2, 15]: 8%; cytotoxicity at 10 µM [2, 16]: 13%; cytotoxicity at 1 µM [2, 16]: 8%; cytotoxicity at 10 µM [2, 17]: 89%; cytotoxicity at 1 µM [2, 17]: 13%; cytotoxicity at 10 µM [2, 18]: 95%; cytotoxicity at 1 µM [2, 18]: 12%; cytotoxicity at 10 µM [2, 19]: 56%; cytotoxicity at 1 µM [2, 19]: 0%; cytotoxicity at 10 µM [2, 20]: 38%; cytotoxicity at 1 µM [2, 20]: 0%; tumor growth (U937 cells): delay in the tumor growth; cytotoxic effect group [3]: I |
| CN(C)CCCN1c2ccccc2Sc2ccc(Cl)cc21 [S59, chlorpromazine] | decrease in tumor growth | 37 | 15 | 48 | 7 | 22 | 9 | 37 | 0 | 51 | 33 | 25 | 32 | 51 | 31 | 13 | 40 | 38 | 20 | 17 | cytotoxicity at 10 µM [2, 15]: 8%; cytotoxicity at 1 µM [2, 15]: 8%; cytotoxicity at 10 µM [2, 16]: 35%; cytotoxicity at 1 µM [2, 16]: 5%; cytotoxicity at 10 µM [2, 17]: 24%; cytotoxicity at 1 µM [2, 17]: 13%; cytotoxicity at 10 µM [2, 18]: 53%; cytotoxicity at 1 µM [2, 18]: 3%; cytotoxicity at 10 µM [2, 19]: 44%; cytotoxicity at 1 µM [2, 19]: 14%; cytotoxicity at 10 µM [2, 20]: 71%; cytotoxicity at 1 µM [2, 20]: 11%; tumor growth (U937 cells): delay in the tumor growth; cytotoxic effect group [3]: I |
| CN[C@@H]1C[C@H]2O[C@@](C)([C@@H]1OC)n1c3ccccc3c3c4c(c5c6ccccc6n2c5c31)C(=O)NC4 [staurosporine] | – | – | – | – | – | – | – | – | – | – | – | – | – | – | – | – | – | – | – | – | PARP cleavage (induction of apoptosis) [4]: cleave PARP |
